Laboratory results taken from PMC9684580, “The BDSF quorum sensing receptor RpfR regulates Bep exopolysaccharide synthesis in Burkholderia cenocepacia via interaction with the transcriptional regulator BerB” (NPJ Biofilms and Microbiomes, 2022).

What was measured:
RpfR [1] = target: T1, RpfR (Burkholderia cenocepacia, UniProt B4EKM4); experiment: DGC assay, products by anion-exchange FPLC (ResourceQ); type: biochemical; settings: 2 uM enzyme, 100 uM substrate, 50 mM Tris-Cl pH 7.8, 500 mM NaCl, 2 mM MgCl2, 37 °C, 180 min; product pGpG
T1 construct: gene BCAM0580; full-length rpfR in pQE-32 (BamHI/HindIII; vector with N-terminal His tag), expressed in E. coli M15[pREP4], purified
T1 sequence (B4EKM4 entry or part of it): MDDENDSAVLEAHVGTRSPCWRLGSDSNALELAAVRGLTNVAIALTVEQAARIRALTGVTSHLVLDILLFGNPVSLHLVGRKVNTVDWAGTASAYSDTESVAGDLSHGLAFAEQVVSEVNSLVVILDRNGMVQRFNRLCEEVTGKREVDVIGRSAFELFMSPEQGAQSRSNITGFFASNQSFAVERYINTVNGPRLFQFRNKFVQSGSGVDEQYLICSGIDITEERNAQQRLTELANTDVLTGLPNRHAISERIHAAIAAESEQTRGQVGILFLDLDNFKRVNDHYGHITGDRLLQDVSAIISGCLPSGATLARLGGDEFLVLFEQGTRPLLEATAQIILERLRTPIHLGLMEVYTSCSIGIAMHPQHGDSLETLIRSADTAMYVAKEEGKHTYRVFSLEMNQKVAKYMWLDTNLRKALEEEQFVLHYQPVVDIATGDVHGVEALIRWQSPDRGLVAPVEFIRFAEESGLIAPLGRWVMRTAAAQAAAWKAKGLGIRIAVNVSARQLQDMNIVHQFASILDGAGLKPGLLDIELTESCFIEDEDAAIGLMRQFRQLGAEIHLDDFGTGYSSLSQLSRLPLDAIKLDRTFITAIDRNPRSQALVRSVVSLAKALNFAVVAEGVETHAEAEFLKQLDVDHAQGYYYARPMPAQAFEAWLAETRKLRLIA

RpfR [2] = target: T1, RpfR; experiment: PDE assay, products by anion-exchange FPLC (ResourceQ); type: biochemical; settings: 2 uM enzyme, 100 uM substrate, 50 mM Tris-Cl pH 7.8, 500 mM NaCl, 2 mM MgCl2, 37 °C, 180 min; product pGpG

| SMILES | DGC assay, products by anion-exchange FPLC (ResourceQ) (RpfR [1]) | PDE assay, products by anion-exchange FPLC (ResourceQ) (RpfR [2]) |
| --- | --- | --- |
| Nc1nc2c(ncn2[C@@H]2O[C@H](COP(=O)(O)OP(=O)(O)OP(=O)(O)O)[C@@H](O)[C@H]2O)c(=O)[nH]1 [GTP] | Wild-type RpfR metabolized GTP as well as c-di-GMP, generating pGpG from both substrates | – |
| Nc1nc2c(ncn2[C@@H]2O[C@@H]3COP(=O)(O)O[C@H]4[C@@H](O)[C@H](n5cnc6c(=O)[nH]c(N)nc65)O[C@@H]4COP(=O)(O)O[C@H]3[C@H]2O)c(=O)[nH]1 [c-di-GMP] | – | Wild-type RpfR metabolized GTP as well as c-di-GMP, generating pGpG from both substrates |
